“And” between values parts separate entries of the source, which are not always exact repeats. Equal entries are not always repeated.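 Dose response: 5 concentrations. Exposure: 48 h. Format: 96-well plates. Endpoint: linear interpolation; highest concentration if not reached. GI50 = concentration required for 50% inhibition of growth. TGI denotes the concentration required for complete inhibition of growth.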
Tests used:
Experiment in all cases: inhibition of tumour cell growth, NCI panel, 48 h
[1] = system: SF-295 CNS
[2] = system: SK-MEL-5 melanoma
[3] = system: HCC-2998 colon
[4] = system: MOLT-4 leukemia
[5] = system: TK-10 renal
[6] = system: RPMI-8226 leukemia
[7] = system: HCT-116 colon
[8] = system: SNB-19 CNS
[9] = system: MDA-MB-231 breast
[10] = system: T-47D breast
[11] = system: OVCAR-8 ovarian
[12] = system: SF-539 CNS
[13] = system: NCI-H460 lung
[14] = system: EKVX NSCLC
[15] = system: HOP-92 NSCLC
[16] = system: NCI-H226 lung

Which results are given for `C=CC(=O)Nc1ccc(NC(=O)C=C)c2c1C(=O)c1ccccc1C2=O`?
TGI [1]: 49.8 µM; TGI [2]: > 100 µM; TGI [3]: > 100 µM; TGI [4]: 96.4 µM; TGI [5]: 62.5 µM; TGI [6]: 21.2 µM; TGI [7]: > 100 µM; TGI [8]: > 100 µM; TGI [9]: > 100 µM; TGI [10]: > 100 µM; TGI [11]: > 100 µM; TGI [12]: 70.9 µM; TGI [13]: > 100 µM; TGI [14]: > 100 µM

How did the TGI [1] turn out when `CC(=O)OCCn1cnc2c(NCC=C(C)C)ncnc21` was run?
Its TGI is > 100 µM.

What about the TGI [2] of the same molecule?
The TGI was > 100 µM.

What about the TGI [4] of the same molecule?
The TGI was > 100 µM.

And the TGI [15]?
The TGI was > 100 µM.

And the TGI [16]?
The TGI was > 100 µM.

What about the TGI [5] of the same molecule?
The TGI was > 100 µM.

And the TGI [6]?
Its TGI is > 100 µM.

And the TGI [7]?
Its TGI is > 100 µM.

And the TGI [8]?
Its TGI is > 100 µM.

And the TGI [9]?
Its TGI is > 100 µM.

What about the TGI [10] of the same molecule?
Its TGI is > 100 µM.

And the TGI [11]?
The TGI was > 100 µM.

And the TGI [12]?
The TGI was > 100 µM.

And the TGI [13]?
The TGI was > 100 µM.

And the TGI [14]?
Its TGI is > 100 µM.

What does the source list for `OC1(C(Sc2cc(C(F)(F)F)cc(C(F)(F)F)c2)Sc2cc(C(F)(F)F)cc(C(F)(F)F)c2)C=CCCC1` (stereo not drawn)?
TGI [1]: 6.39 µM; TGI [2]: 16.6 µM; TGI [3]: 3.25 µM; TGI [4]: 5.08 µM; TGI [15]: 9.15 µM; TGI [5]: 3.8 µM; TGI [6]: 4.8 µM; TGI [7]: 6.74 µM; TGI [8]: 8.2 µM; TGI [10]: 4.26 µM; TGI [11]: 7.9 µM; TGI [13]: 3.55 µM; TGI [14]: 6.78 µM

How did the TGI [1] turn out when `CC1OC(OC2C(OC(=O)[C@]34CCC(C)(C)C[C@H]3C3=CC[C@@H]5[C@@]6(C)CC[C@H](OC7OC(C(=O)O)C(O)C(O)C7O)C(C)(C)[C@@H]6CC[C@@]5(C)[C@]3(C)C[C@H]4O)OCC(O)C2O)C(O)C(O)C1OC1OCC(O)C(O)C1O` (stereo partly drawn) was run?
The TGI was 29.6 µM and 22.1 µM.

What about the TGI [2] of the same molecule?
Its TGI is 30.5 µM and 34.7 µM.

And the GI50 [3]?
Its GI50 is 4.02 µM and 1.4 µM.

And the TGI [3]?
The TGI was 12.7 µM and 3.07 µM.

And the TGI [4]?
Its TGI is 34.6 µM and 74.8 µM.

What about the TGI [15] of the same molecule?
Its TGI is 26.9 µM and 24.4 µM.

And the TGI [16]?
The TGI was 19.2 µM and 25.9 µM.

And the TGI [6]?
Its TGI is 30.4 µM and 94 µM.

What about the TGI [7] of the same molecule?
The TGI was 28.1 µM and 22.1 µM.

And the TGI [8]?
The TGI was 25.8 µM and 23.8 µM.

What about the GI50 [9] of the same molecule?
Its GI50 is 9.19 µM and 3.49 µM.

What about the TGI [9] of the same molecule?
The TGI was 22.3 µM and 8.24 µM.

What about the TGI [10] of the same molecule?
Its TGI is 96.2 µM and 30.6 µM.

And the GI50 [11]?
The GI50 was 13.2 µM and 2.33 µM.

And the TGI [11]?
The TGI was 26.5 µM and 5.19 µM.

What about the TGI [13] of the same molecule?
Its TGI is 48.3 µM and 33.7 µM.

What about the GI50 [14] of the same molecule?
The GI50 was 7.47 µM and 3.7 µM.

And the TGI [14]?
Its TGI is 21.3 µM and 13 µM.

What does the source list for `CCOC(=O)c1cc(C2CCN(c3ccccc3)C2=O)c(/C(O)=C/C(C)=O)[nH]1` (stereo not drawn)?
TGI [1]: > 100 µM; TGI [2]: > 100 µM; TGI [3]: > 100 µM; TGI [4]: > 100 µM; TGI [16]: > 100 µM; TGI [5]: > 100 µM; TGI [6]: > 100 µM; TGI [7]: > 100 µM; TGI [8]: > 100 µM; TGI [9]: > 100 µM; TGI [10]: > 100 µM; TGI [11]: > 100 µM; TGI [12]: 31.9 µM; TGI [13]: > 100 µM; TGI [14]: > 100 µM

`COc1ccccc1Nc1nc2c([nH]1)c(=O)n(C)c(=O)n2C` was tested. Which TGI [1] did it give?
Its TGI is > 10 µM.

What about the TGI [2] of the same molecule?
Its TGI is > 10 µM.

What about the TGI [3] of the same molecule?
Its TGI is > 10 µM.

And the TGI [4]?
Its TGI is > 10 µM.

What about the TGI [15] of the same molecule?
The TGI was > 10 µM.

And the TGI [5]?
Its TGI is > 10 µM.

And the TGI [6]?
Its TGI is > 10 µM.

And the TGI [9]?
Its TGI is > 10 µM.

And the TGI [10]?
The TGI was > 10 µM.

What about the TGI [11] of the same molecule?
Its TGI is > 10 µM.

What about the TGI [14] of the same molecule?
The TGI was > 10 µM.

What does the source list for `FC1(F)[Se]C2C3CCC(C3)C2C1(F)F` (stereo not drawn)?
TGI [1]: > 100 µM; TGI [2]: > 100 µM; TGI [3]: > 100 µM; TGI [4]: > 100 µM; TGI [16]: > 100 µM; TGI [5]: > 100 µM; TGI [6]: > 100 µM; TGI [7]: > 100 µM; TGI [8]: > 100 µM; TGI [9]: > 100 µM; TGI [10]: > 100 µM; TGI [11]: > 100 µM; TGI [12]: > 100 µM; TGI [13]: > 100 µM; TGI [14]: > 100 µM

With `C=CCOC(=O)CC[C@H](NC(=O)[C@@H](CCC(F)(F)F)Cc1ccc(O)cc1)C(=O)OCC=C` as the molecule, how does the TGI [1] read?
The TGI was > 100 µM.

And the TGI [2]?
Its TGI is 35 µM.

What about the TGI [4] of the same molecule?
The TGI was 79.8 µM.

And the TGI [15]?
The TGI was > 100 µM.

What about the TGI [16] of the same molecule?
The TGI was > 100 µM.

What about the TGI [6] of the same molecule?
The TGI was 74.6 µM.

And the TGI [7]?
The TGI was > 100 µM.

What about the TGI [8] of the same molecule?
Its TGI is > 100 µM.

What about the TGI [10] of the same molecule?
Its TGI is 51.5 µM.

And the TGI [11]?
Its TGI is > 100 µM.

And the TGI [12]?
Its TGI is > 100 µM.

What about the TGI [14] of the same molecule?
Its TGI is 73.4 µM.

Source: PubChem BioAssay (NCI)
